What follows are compounds tested against Kv1.3 (Homo sapiens (Human), UniProt P22001) (assay: Patch-clamp assay for inhibitory activity on Kv1.3 (whole cell patch-clamp recording)). Conditions: n≥2 per concentration.
Type: cell-based
Method: Patch-Clamp Assay for Inhibitory Activity on Kv1.3
For a description of a Kv1.3 patch-clamp assay, see Grissmer et al., Mol. Pharmacol. 1994, 45, 1227; whole cell patch-clamp recording was performed with n≥2 individual experiments at each compound concentration using different cells. Three or more different concentrations were determined per dose response curve.

Kv1.3, sequence (P22001 whole entry): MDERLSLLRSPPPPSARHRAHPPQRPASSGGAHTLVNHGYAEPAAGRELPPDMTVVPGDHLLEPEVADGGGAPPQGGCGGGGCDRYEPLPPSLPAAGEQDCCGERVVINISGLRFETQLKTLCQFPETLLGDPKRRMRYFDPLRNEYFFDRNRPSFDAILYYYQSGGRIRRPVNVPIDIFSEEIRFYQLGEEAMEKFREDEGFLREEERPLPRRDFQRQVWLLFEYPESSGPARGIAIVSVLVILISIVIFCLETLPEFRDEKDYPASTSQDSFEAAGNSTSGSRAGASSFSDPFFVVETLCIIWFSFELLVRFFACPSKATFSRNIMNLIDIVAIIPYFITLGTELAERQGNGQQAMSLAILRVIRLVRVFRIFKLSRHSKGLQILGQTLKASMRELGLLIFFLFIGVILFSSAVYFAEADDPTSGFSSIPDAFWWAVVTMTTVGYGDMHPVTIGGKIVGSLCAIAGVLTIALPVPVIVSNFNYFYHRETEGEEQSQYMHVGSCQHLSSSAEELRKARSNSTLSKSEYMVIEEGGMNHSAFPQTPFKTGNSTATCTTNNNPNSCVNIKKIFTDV

IC50 | SMILES
501 to 1500 nM | Cc1nc2cc3c(-c4ccccc4)c(C)c(=O)oc3c(C)c2o1 [Example 48, 2,4,7-trimethyl-8-phenyl-6H-chromeno [6,7-d]oxazol-6-one]
1500 to 3000 nM | Cc1c(CN(C)C)oc2c(C)c3oc(=O)cc(-c4ccccc4)c3cc12 [Example 15, 2-((dimethylamino)methyl)-3,9-dimethyl-5-phenyl-7H-furo[3,2-g]chromen-7-one]
1500 to 3000 nM | Cc1coc2c(C)c3c(cc12)c(-c1ccccc1)cc(=O)n3C [Example 32, 3,8,9-trimethyl-5-phenylfuro[3,2-g]quinolin-7(8H)-one]
501 to 1500 nM | Cc1ccccc1-c1c(C)c(=O)n(C)c2c(C)c3occ(C)c3cc12 [Example 59, 3,6,8,9-tetramethyl-5-(o-tolyl)furo[3,2-g]quinolin-7(8H)-one]
≤ 500 nM | Cc1coc2c(C)c3oc(=O)cc(-c4ccccc4F)c3cc12 [Example 8, 5-(2-fluorophenyl)-3,9-dimethyl-7H-furo[3,2-g]chromen-7-one]
1500 to 3000 nM | Cc1c(N2CCOCC2)oc2c(C)c3oc(=O)cc(-c4ccccc4)c3cc12 [Example 12, 3,9-dimethyl-2-morpholino-5-phenyl-7H-furo[3,2-g]chromen-7-one]
501 to 1500 nM | Cc1coc2nc3oc(=O)cc(-c4ccccc4)c3cc12 [Example 24, 3-methyl-5-phenyl-7H-furo[2,3-b]pyrano[3,2-e]pyridin-7-one]
1500 to 3000 nM | Cc1coc2c(C)c3oc(=O)cc(-c4ccccc4Cl)c3cc12 [Example 3, 5-(2-chlorophenyl)-3,9-dimethyl-7H-furo[3,2-g]chromen-7-one]
1500 to 3000 nM | CNCc1nc2cc3c(-c4ccccc4)cc(=O)oc3c(C)c2o1 [Example 39, 4-methyl-2-((methylamino)methyl)-8-phenyl-6H-chromeno[6,7-d]oxazol-6-one]
501 to 1500 nM | Cc1c(-c2ccccc2)c2cc3c(C)noc3c(C)c2n(C)c1=O [Example 52, 3,6,8,9-tetramethyl-5-phenylisoxazolo[4,5-g]quinolin-7(8H)-one]
1500 to 3000 nM | COc1c2occ(C)c2cc2c(-c3ccccc3)cc(=O)oc12 [Example 23, 9-methoxy-3-methyl-5-phenyl-7H-furo[3,2-g]chromen-7-one]
501 to 1500 nM | COc1cccc(-c2c(C)c(=O)oc3c(C)c4occ(C)c4cc23)c1 [Example 6, 5-(3-methoxyphenyl)-3,6,9-trimethyl-7H-furo[3,2-g]chromen-7-one]
≤ 500 nM | Cc1c(-c2ccccc2Cl)c2cc3c(C)coc3c(C)c2n(C)c1=O [Example 60, 5-(2-chlorophenyl)-3,6,8,9-tetramethylfuro[3,2-g]quinolin-7(8H)-one]
≤ 500 nM | Cc1coc2c(C)c3c(cc12)c(-c1ccccc1)c(Br)c(=O)n3C [Example 33, 6-bromo-3,8,9-trimethyl-5-phenylfuro[3,2-g]quinolin-7(8H)-one]
1500 to 3000 nM | Cc1c2ocnc2cc2c(-c3ccccc3)cc(=O)oc12 [Example 47, 4-methyl-8-phenyl-6H-chromeno[6,7-d]oxazol-6-one]
1500 to 3000 nM | Cc1coc2c(C)c3oc(=O)cc(-c4cccc(C(F)(F)F)c4)c3cc12 [Example 4, 3,9-dimethyl-5-(3-(trifluoromethyl)phenyl)-7H-furo[3,2-g]chromen-7-one]
501 to 1500 nM | Cc1ccccc1-c1cc(=O)oc2cc3occ(C)c3cc12 [Example 17, 3-methyl-5-(o-tolyl)-7H-furo[3,2-g]chromen-7-one]
≤ 500 nM | Cc1c(-c2ccccc2)c2cc3c(C)noc3c(C)c2[nH]c1=O [Example 36, 3,6,9-trimethyl-5-phenylisoxazolo[4,5-g]quinolin-7(8H)-one]
1500 to 3000 nM | Cc1c(CN2CCOCC2)oc2c(C)c3oc(=O)cc(-c4ccccc4)c3cc12 [Example 14, 3,9-dimethyl-2-(morpholinomethyl)-5-phenyl-7H-furo[3,2-g]chromen-7-one]

IC50 | SMILES
501 to 1500 nM | Cc1noc2c(C)c3[nH]c(=O)cc(-c4ccccc4)c3cc12 [Example 51, 3,9-dimethyl-5-phenylisoxazolo[4,5-g]quinolin-7(8H)-one]
1500 to 3000 nM | COc1ccncc1-c1c(C)c(=O)oc2c(C)c3occ(C)c3cc12 [Example 63, 5-(4-methoxypyridin-3-yl)-3,6,9-trimethyl-7H-furo[3,2-g]chromen-7-one]
501 to 1500 nM | COc1cccc(-c2cc(=O)oc3cc4occ(C)c4cc23)c1 [Example 20, 5-(3-methoxyphenyl)-3-methyl-7H-furo[3,2-g]chromen-7-one]
501 to 1500 nM | Cc1nc2cc3c(-c4ccccc4)cc(=O)oc3c(C)c2o1 [Example 38, 2,4-dimethyl-8-phenyl-6H-chromeno[6,7-d]oxazol-6-one]
501 to 1500 nM | Cc1ccccc1-c1c(Br)c(=O)[nH]c2c(C)c3occ(C)c3cc12 [Example 28, 6-bromo-3,9-dimethyl-5-(o-tolyl)furo[3,2-g]quinolin-7(8H)-one]
≤ 500 nM | Cc1c(-c2ccccc2F)c2cc3c(C)coc3c(C)c2n(C)c1=O [Example 61, 5-(2-fluorophenyl)-3,6,8,9-tetramethylfuro[3,2-g]quinolin-7(8H)-one]
1500 to 3000 nM | Cc1ccccc1-c1cc(=O)[nH]c2c(C)c3occ(C)c3cc12 [Example 29, 3,9-dimethyl-5-(o-tolyl)furo[3,2-g]quinolin-7(8H)-one]
501 to 1500 nM | Cc1cccc(-c2cc(=O)oc3cc4occ(C)c4cc23)c1 [Example 18, 3-methyl-5-(m-tolyl)-7H-furo[3,2-g]chromen-7-one]
501 to 1500 nM | Cc1c(-c2ccccc2)c2cc3c(C)noc3c(C)c2oc1=O [Example 35, 3,6,9-trimethyl-5-phenyl-7H-chromeno[6,7-d]isoxazol-7-one]
1500 to 3000 nM | Cc1coc2c(C)c3oc(=O)cc(-c4ccccn4)c3cc12 [Example 57, 3,9-dimethyl-5-(pyridin-2-yl)-7H-furo[3,2-g]chromen-7-one]
1500 to 3000 nM | Cc1c(C#N)oc2c(C)c3oc(=O)cc(-c4ccccc4)c3cc12 [Example 13, 3,9-dimethyl-7-oxo-5-phenyl-7H-furo[3,2-g]chromene-2-carbonitrile]
1500 to 3000 nM | COc1ncccc1-c1c(C)c(=O)n(C)c2c(C)c3occ(C)c3cc12 [Example 64, 5-(2-methoxypyridin-3-yl)-3,6,8,9-tetramethylfuro[3,2-g]quinolin-7(8H)-one]
1500 to 3000 nM | COc1cccc(-c2cc(=O)oc3c(C)c4occ(C)c4cc23)c1 [Example 2, 5-(3-methoxyphenyl)-3,9-dimethyl-7H-furo[3,2-g]chromen-7-one]
501 to 1500 nM | Cc1coc2cc3oc(=O)cc(-c4cccc(Cl)c4)c3cc12 [Example 22, 5-(3-chlorophenyl)-3-methyl-7H-furo[3,2-g]chromen-7-one]
501 to 1500 nM | COc1ccccc1-c1cc(=O)oc2cc3occ(C)c3cc12 [Example 19, 5-(2-methoxyphenyl)-3-methyl-7H-furo[3,2-g]chromen-7-one]
1500 to 3000 nM | Cc1c(-c2ccccc2)c2cc3c(C)c(CN(C)C)oc3c(C)c2oc1=O [Example 46, 2-((dimethylamino)methyl)-3,6,9-trimethyl-5-phenyl-7H-furo[3,2-g]chromen-7-one]
501 to 1500 nM | Cc1ccccc1-c1cc(=O)oc2c(C)c3occ(C)c3cc12 [Example 58, 3,9-dimethyl-5-(o-tolyl)-7H-furo[3,2-g]chromen-7-one]
501 to 1500 nM | Cc1c(-c2ccccc2)c2cc3c(C4CC4)coc3c(C)c2oc1=O [Example 42, 3-cyclopropyl-6,9-dimethyl-5-phenyl-7H-furo[3,2-g]chromen-7-one]
